ChEMBL document CHEMBL4706603, “Discovery of VEGFR-2 inhibitors exerting significant anticancer activity against CD44+ and CD133+ cancer stem cells (CSCs): Reversal of TGF-β induced epithelial-mesenchymal transition (EMT) in hepatocellular carcinoma” (Eur J Med Chem, 2020)
Calls of active or inactive are those of the source. The calls are words filed in the database; no cut-off is given here.

Experiments:
MCF7 = assay: Cytotoxicity against human MCF7 cells assessed as reduction in cell viability incubated for 24 hrs by MTT assay; assay type: functional, cell-based
MDA-MB-231 [1] = assay: Cytotoxicity against human MDA-MB-231 cells assessed as reduction in cell viability incubated for 24 hrs by MTT assay; assay type: functional, cell-based
MDA-MB-231 [2] = assay: Cytotoxicity against human MDA-MB-231 cells assessed as reduction in cell viability by trypan blue assay; assay type: functional, cell-based
HepG2 [3] = assay: Cytotoxicity against human HepG2 cells assessed as reduction in cell viability by trypan blue assay; assay type: functional, cell-based
MDA-MB-231 [4] = assay: Induction of apoptosis in human MDA-MB-231 cells assessed as viable cells at IC50 incubated for 72 hrs by Alexa Fluor488-annexin V/PI staining based flow cytometric analysis (Rvb= 99.4 %); assay type: functional
HepG2 [5] = assay: Induction of apoptosis in human HepG2 cells assessed as shrinkage of nucleus by measuring orange coloured fluorescence at IC50 incubated for 24 hrs by EtBr/AO staining based fluorescence microscopic analysis; assay type: functional, cell-based
HepG2 [6] = assay: Induction of mitochondrial membrane potential disruption in human HepG2 cells assessed as green fluorescence at IC50 incubated for 24 hrs by JC-10 staining based fluorescence assay; assay type: functional, cell-based
HepG2 [7] = assay: Antimigratory activity against human HepG2 cells assessed as reduction in cell migration at IC50 incubated for 24 hrs by transwell migration assay; assay type: functional, cell-based
Chorioallantoic membrane = assay: Antiangiogenic activity in chicken fertilized egg chorioallantoic membrane measured upto 72 hrs by CAM assay; assay type: functional, tissue-based; conditions: Gallus gallus, dose 0.01-2 µM, time hrs <=72
HUVEC [8] = assay: Antiproliferative activity against human HUVEC assessed as reduction in cell viability incubated for 24 hrs by MTT assay; assay type: functional, cell-based
HUVEC [9] = assay: Induction of apoptosis in human HUVEC assessed as early apoptotic cells at IC50 incubated for 48 hrs by annexin V-FITC and PI staining based flow cytometry (reference value: <1%); assay type: functional
HUVEC [10] = assay: Induction of apoptosis in human HUVEC assessed as late apoptotic cells at IC50 incubated for 48 hrs by annexin V-FITC and PI staining based flow cytometry; assay type: functional
[11] = Inhibition of VEGF expression in human HUVEC assessed as mean fluorescence intensity at IC50 incubated for 48 hrs by FITC based flow cytometry analysis (reference value: 53.91+/- 0.95); assay type: functional
[12] = Inhibition of VEGFR2 expression in human HUVEC assessed as mean fluorescence intensity at IC50 incubated for 48 hrs by fluorescence microscopic analysis (reference value: 1.448 +/- 0.01); assay type: functional
HepG2 [13] = assay: Induction of cell cycle arrest in human HepG2 cells harboring CD133+ assessed as increase in S phase arrest at IC50 concentration incubated for 48 hrs by PI staining based flow cytometry analysis; assay type: functional
HepG2 [14] = assay: Inhibition of epithelial-mesenchymal transition in TGF-beta-induced human HepG2 cells assessed as E-cadherin expression at IC50 incubated for 48 hrs by flow cytometry analysis (reference value: 2.92 %); assay type: functional; parameters: scale not given: the % may be the effect or the level left
[15] = Toxicity in Wistar rat assessed as mortality of organism at 5 to 2000 mg/kg, po and observed for 14 days; assay type: organism-based; conditions: in vivo, 336 h, dose 5-2000 mg/kg, time 14 day
[16] = Toxicity in female Wistar rat assessed as roughened fur at 2000 mg/kg, po observed for 48 hrs; assay type: organism-based; conditions: in vivo
[17] = Toxicity in female Wistar rat assessed as hard abdomen at 2000 mg/kg, po observed for 48 hrs; assay type: organism-based; conditions: in vivo
[18] = Toxicity in female Wistar rat assessed as periodic body stretching at 2000 mg/kg, po observed for 48 hrs; assay type: organism-based; conditions: in vivo
[19] = Toxicity in Wistar rat assessed as effect on body weight at 5 to 300 mg/kg, po and observed for 14 days; assay type: organism-based; conditions: in vivo, 336 h, dose 5-300 mg/kg, time 14 day
[20] = Toxicity in Wistar rat assessed as effect on water consumption at 5 to 2000 mg/kg, po and observed for 14 days; assay type: organism-based; conditions: in vivo, 336 h, dose 5-2000 mg/kg, time 14 day
[21] = Toxicity in Wistar rat assessed as effect on SGPT level at 5 to 2000 mg/kg, po and measured on day 15; assay type: organism-based; conditions: in vivo, 360 h, dose 5-2000 mg/kg, time 15 day
[22] = Toxicity in Wistar rat assessed as effect on uric acid level in serum at 5 to 2000 mg/kg, po and measured on day 15; assay type: organism-based; conditions: in vivo, 360 h, dose 5-2000 mg/kg, time 15 day
[23] = Toxicity in Wistar rat assessed as effect on relative weight of lungs at 5 to 2000 mg/kg, po and measured on day 15; assay type: organism-based; conditions: in vivo, 360 h, dose 5-2000 mg/kg, time 15 day
[24] = Toxicity in Wistar rat assessed as normal histoarchitecture of alveoli and bronchi in lungs without inflammatory or pathological changes at 2000 mg/kg, po and measured on day 15 by microscopic analysis; assay type: organism-based; conditions: in vivo, 360 h, time 15 day
[25] = Toxicity in Wistar rat assessed as normal splenic tissue with normal red and white pulp with lymphoid cellular population at 2000 mg/kg, po and measured on day 15 by microscopic analysis; assay type: organism-based; conditions: in vivo, 360 h, time 15 day
[26] = Toxicity in Wistar rat assessed as normal renal parenchyma with intact renal tubules and glomeruli without inflammatory or pathological changes at 2000 mg/kg, po and measured on day 15 by microscopic analysis; assay type: organism-based; conditions: in vivo, 360 h, time 15 day
[27] = Tmax in Wistar rat at 5 mg/kg, po measured upto 72 hrs by HPLC-MS analysis; assay type: ADME, organism-based; conditions: in vivo
[28] = AUMC (0 to infinity) in Wistar rat at 5 mg/kg, po by HPLC-MS analysis; assay type: ADME, organism-based; conditions: in vivo
[29] = MRT in Wistar rat at 5 mg/kg, po measured upto 72 hrs by HPLC-MS analysis; assay type: ADME, organism-based; conditions: in vivo
[30] = Half life in Wistar rat at 5 mg/kg, po measured upto 72 hrs by HPLC-MS analysis; assay type: ADME, organism-based; conditions: in vivo
HepG2 [31] = assay: Induction of apoptosis in human HepG2 cells assessed as late apoptotic cells by measuring orange coloured nucleus at IC50 incubated for 24 hrs by EtBr/AO staining based fluorescence microscopic analysis; assay type: functional, cell-based
HepG2 [32] = assay: Induction of apoptosis in human HepG2 cells assessed as necrotic cells by measuring orange-red coloured flourescence at IC50 incubated for 24 hrs by EtBr/AO staining based fluorescence microscopic analysis; assay type: functional, cell-based
[33] = Toxicity in Wistar rat assessed as effect on relative weight of liver at 5 to 2000 mg/kg, po and measured on day 15; assay type: organism-based; conditions: in vivo, 360 h, dose 5-2000 mg/kg, time 15 day
[34] = Toxicity in Wistar rat assessed as effect on relative weight of spleen at 5 to 2000 mg/kg, po and measured on day 15; assay type: organism-based; conditions: in vivo, 360 h, dose 5-2000 mg/kg, time 15 day
[35] = Toxicity in po dosed Wistar rat; assay type: organism-based; conditions: in vivo
HepG2 [36] = assay: Induction of DNA damage in human HepG2 cells assessed as increase in length of comet tail with decrease in nuclear DNA content with complete DNA damage at IC50 incubated for 24 hrs by Comet assay; assay type: functional, cell-based
HepG2 [37] = assay: Antimigratory activity against human HepG2 cells assessed as reduction in cell migration at IC50 by transwell migration assay; assay type: functional, cell-based; conditions: TDE = time-dependent effect

## CC(=O)Nc1ccc(Oc2cccc3c(NC(=O)Nc4cccc(C(F)(F)F)c4)cccc23)cc1
MCF7
  inhibition: Dose-dependent effect
MDA-MB-231 [1]
  inhibition: Dose-dependent effect
MDA-MB-231 [1]; MDA-MB-231, 24 h
  IC50: 1410 nM
MDA-MB-231 [2]
  IC50: 3580 nM
  inhibition: Dose-dependent effect
HepG2 [3]
  IC50: 1170 nM
  inhibition: Dose-dependent effect
MDA-MB-231 [4]
  Activity: 27.3%
HepG2 [5]
  Activity: Active
HepG2 [6]
  Activity: Active
HepG2 [7]
  Activity: Active
Chorioallantoic membrane
  Activity: Dose-dependent effect
HUVEC [8]
  IC50: 9640 nM
  inhibition: Dose-dependent effect
HUVEC [9]
  Activity: 37.53%
HUVEC [10]
  Activity: 6.09%
[11]
  Flu intensity: 21.41
[12]
  Flu intensity: 1
HepG2 [13]
  Activity: Active
HepG2 [14]
  Activity: 46.7%
[15]
  Activity: Non-Toxic
[16]
  Activity: Toxic
[17]
  Activity: Toxic
[18]
  Activity: Toxic
[19]
  Activity: Non-Toxic
[20]
  Activity: Non-Toxic
[21]
  Activity: Non-Toxic
[22]
  Activity: Non-Toxic
[23]
  Activity: Non-Toxic
[24]
  Activity: Non-Toxic
[25]
  Activity: Non-Toxic
[26]
  Activity: Non-Toxic
[27]
  Tmax: 6 h
[28]
  AUMC: 8929.284 ug/ml.hr^2
[29]
  MRT: 14.3 h
[30]
  half-life: 11.9 h
HepG2 [31]
  Activity: Active
HepG2 [32]
  Activity: Active
[33]
  Activity: Non-Toxic
[34]
  Activity: Non-Toxic
[35]
  LD50: > 2000 mg/kg
HepG2 [36]
  Activity: Active
HepG2 [37]
  Activity: Tde
